For two compounds, LD100 and inhibition in vivo results are on record in ChEMBL document CHEMBL3217640, “Labile natural products” (Medchemcomm, 2012).

For one data set, the system named is Mus musculus. As to the kind of experiment: Toxicity in po dosed mouse. It is filed as organism-based. The following applies: in vivo.
In another data set the test system is Rattus norvegicus. The data set is described as follows: Antiinflammatory activity in Wistar rat assessed as inhibition of heat-killed Mycobacterium butyricum-induced paw swelling at 10 mg/kg, po administered on day 10 to 15 measured everyday of compound dosing by plethysmometer relative to control. It is filed as functional. To be noted: 240 h.

On to `O=C(O)C1C=C1`, for which the LD100 in the data set with Mus musculus was determined as 2.5 mg/kg. Regarding `CCCCCc1oc(CCCCCCCCCCC(=O)OCC)c(C)c1C`, the inhibition in vivo at 10 mg/kg with Rattus norvegicus worked out at 74%.
